Data as given in ChEMBL document CHEMBL1201862, “PubChem BioAssay data set” (2004).
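Dose response: 5 concentrations. Exposure: 48 h. Format: 96-well plates. Endpoint: linear interpolation; highest concentration if not reached. Here, GI50 denotes the concentration required for 50% inhibition of growth.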 Active and inactive are the calls of the source. No stated cut-off is given here; in the data, active = GI50 up to about 1.1 µM and inactive = higher.

Columns and labels:
Assay in all cases: NCI-60 cell line screen, 48 h
[1] = test system: SF-295
[2] = test system: HOP-62
[3] = test system: CAKI-1
[4] = test system: RXF 393
[5] = test system: K562
[6] = test system: NCI-H23
[7] = test system: 786-0
[8] = test system: EKVX
[9] = test system: SN12C
[10] = test system: IGROV-1
[11] = test system: HCC 2998
[12] = test system: SK-MEL-2
[13] = test system: UO-31
[14] = test system: MOLT-4
[15] = test system: RPMI-8226
[16] = test system: NCI-H226

Compound	GI50 [1]	GI50 [2]	GI50 [3]	GI50 [4]	GI50 [5]	GI50 [6]	GI50 [7]	GI50 [8]	GI50 [9]	GI50 [10]	GI50 [11]	GI50 [12]	GI50 [13]	GI50 [14]	GI50 [15]	GI50 [16]
NC1=C(Br)C(=O)c2ncccc2C1=O	0.367 µM (active)	0.632 µM (active)	1.51 µM (inactive)	0.258 µM (active)	0.277 µM (active)	0.156 µM (active)	1.51 µM (inactive)	1.61 µM (inactive)	0.815 µM (active)	1.11 µM (active)	1.11 µM (active)	0.346 µM (active)	0.316 µM (active)	1.63 µM (inactive)	0.942 µM (active)	1.69 µM (inactive)
C[N+](C)(C)Cc1c(CC#N)[nH]c2ccccc12	> 100 µM (inactive)	> 100 µM (inactive)	96.8 µM (inactive)	> 100 µM (inactive)	25.8 µM (inactive)	> 100 µM (inactive)	24.7 µM (inactive)	> 100 µM (inactive)	> 100 µM (inactive)	> 100 µM (inactive)	> 100 µM (inactive)	> 100 µM (inactive)	76.7 µM (inactive)	24.5 µM (inactive)	31.6 µM (inactive)	> 100 µM (inactive)
NC(=O)CCC(NC(=O)Cc1ccccc1)C(=O)O.NC(CCC(=O)NC(=O)Cc1ccccc1)C(=O)O (configuration not stated)	> 8130 µM (inactive)	> 8130 µM (inactive)	> 8130 µM (inactive)	> 8130 µM (inactive)	> 8130 µM (inactive)	> 8130 µM (inactive)	> 8130 µM (inactive)	> 8130 µM (inactive)	> 8130 µM (inactive)	> 8130 µM (inactive)	> 8130 µM (inactive)	> 8130 µM (inactive)	> 8130 µM (inactive)	> 8130 µM (inactive)	> 8130 µM (inactive)	–
COc1ccc2c3c(c(C(=O)c4ccccc4)oc13)CCC2	> 100 µM (inactive)	> 100 µM (inactive)	> 100 µM (inactive)	17.5 µM (inactive)	> 100 µM (inactive)	20.8 µM (inactive)	> 100 µM (inactive)	> 100 µM (inactive)	> 100 µM (inactive)	> 100 µM (inactive)	> 100 µM (inactive)	–	–	> 100 µM (inactive)	> 100 µM (inactive)	–
C/C(CC(=O)N(C(C)C)C(C)C)=N\NC(=O)c1ccncc1	> 100 µM (inactive)	–	–	> 100 µM (inactive)	> 100 µM (inactive)	> 100 µM (inactive)	> 100 µM (inactive)	> 100 µM (inactive)	> 100 µM (inactive)	> 100 µM (inactive)	> 100 µM (inactive)	–	> 100 µM (inactive)	> 100 µM (inactive)	> 100 µM (inactive)	> 100 µM (inactive)
Cn1c(C2CC(C)(C)c3c2c2ccccc2n3C)cc2ccccc21 (configuration not stated)	195 µM (inactive)	> 304 µM (inactive)	192 µM (inactive)	> 304 µM (inactive)	> 304 µM (inactive)	> 304 µM (inactive)	> 304 µM (inactive)	> 304 µM (inactive)	> 304 µM (inactive)	225 µM (inactive)	> 304 µM (inactive)	> 304 µM (inactive)	–	> 304 µM (inactive)	118 µM (inactive)	180 µM (inactive)
CN(C)CCNC(=O)C1COc2cc(-c3cc(=O)c4ccccc4o3)ccc2O1 (configuration not stated)	28.4 µM (inactive)	33 µM (inactive)	17.1 µM (inactive)	21.4 µM (inactive)	36.7 µM (inactive)	41.1 µM (inactive)	18.1 µM (inactive)	53.5 µM (inactive)	22.4 µM (inactive)	22.2 µM (inactive)	> 100 µM (inactive)	–	74.3 µM (inactive)	15.7 µM (inactive)	27.9 µM (inactive)	28.1 µM (inactive)
O=Cc1cn(S(=O)(=O)c2ccccc2)c2ccccc12	48.3 µM (inactive)	> 100 µM (inactive)	–	95.5 µM (inactive)	19.9 µM (inactive)	26.4 µM (inactive)	55.5 µM (inactive)	> 100 µM (inactive)	42.4 µM (inactive)	> 100 µM (inactive)	> 100 µM (inactive)	–	18.7 µM (inactive)	16.3 µM (inactive)	20.8 µM (inactive)	70.3 µM (inactive)
CC(=O)n1ccc2c(Cl)ncnc21	> 100 µM (inactive)	> 100 µM (inactive)	> 61.4 µM (inactive)	0.038 µM (active)	> 100 µM (inactive)	> 100 µM (inactive)	> 100 µM (inactive)	> 67.3 µM (inactive)	> 100 µM (inactive)	> 100 µM (inactive)	> 100 µM (inactive)	> 100 µM (inactive)	–	> 100 µM (inactive)	> 100 µM (inactive)	–
Nc1nc(SCCNC(=O)CCc2ccc(O)cc2)nc2c1ncn2C1OC(CO)C(O)C1O (configuration not stated)	> 203 µM (inactive)	> 203 µM (inactive)	> 203 µM (inactive)	–	> 203 µM (inactive)	> 203 µM (inactive)	> 203 µM (inactive)	–	> 203 µM (inactive)	> 203 µM (inactive)	> 203 µM (inactive)	> 203 µM (inactive)	> 203 µM (inactive)	> 203 µM (inactive)	> 203 µM (inactive)	> 203 µM (inactive)
O=C(c1ccccc1)c1nc2c(Cl)ccc(Cl)c2cc1C(Br)Br	1.2 µM (inactive)	1.67 µM (inactive)	1.58 µM (inactive)	2.34 µM (inactive)	0.311 µM (active)	–	0.286 µM (active)	–	1.17 µM (inactive)	2.75 µM (inactive)	2.06 µM (inactive)	2.01 µM (inactive)	1.29 µM (inactive)	1.36 µM (inactive)	0.284 µM (active)	1.97 µM (inactive)
Cc1ccc(C)c2c1CCc1cc3ccccc3nc1-2	> 100 µM (inactive)	> 100 µM (inactive)	> 100 µM (inactive)	–	> 100 µM (inactive)	> 100 µM (inactive)	> 100 µM (inactive)	> 100 µM (inactive)	> 100 µM (inactive)	> 100 µM (inactive)	> 100 µM (inactive)	> 100 µM (inactive)	> 100 µM (inactive)	> 100 µM (inactive)	> 100 µM (inactive)	–
O=C1C2=C(c3ccccc31)C(c1ccc(F)cc1)N1C(=O)CCSC1=N2 (configuration not stated)	> 100 µM (inactive)	> 100 µM (inactive)	69 µM (inactive)	–	> 100 µM (inactive)	> 100 µM (inactive)	> 100 µM (inactive)	> 100 µM (inactive)	42.9 µM (inactive)	> 100 µM (inactive)	> 100 µM (inactive)	> 100 µM (inactive)	39.9 µM (inactive)	64.6 µM (inactive)	49.2 µM (inactive)	93.3 µM (inactive)
Cc1ccc(S(=O)(=O)N2CCC2c2ccccc2)cc1 (configuration not stated)	74.6 µM (inactive)	> 100 µM (inactive)	–	84.5 µM (inactive)	41.8 µM (inactive)	76.4 µM (inactive)	> 100 µM (inactive)	64 µM (inactive)	> 100 µM (inactive)	> 100 µM (inactive)	> 100 µM (inactive)	> 100 µM (inactive)	23.1 µM (inactive)	37.8 µM (inactive)	66.2 µM (inactive)	28.6 µM (inactive)
Cc1ccc(C)c(NC(=O)C(=O)C(C2C(C)CC(=O)C2CC(=O)O)[N+](=O)[O-])c1 (configuration not stated)	> 100 µM (inactive)	> 100 µM (inactive)	> 100 µM (inactive)	> 100 µM (inactive)	> 100 µM (inactive)	> 100 µM (inactive)	> 100 µM (inactive)	> 100 µM (inactive)	> 100 µM (inactive)	> 100 µM (inactive)	> 100 µM (inactive)	> 100 µM (inactive)	> 100 µM (inactive)	> 100 µM (inactive)	> 100 µM (inactive)	> 100 µM (inactive)
O=c1c2ccccc2c2c3c1cccc3c1cccc3c(=O)c4ccccc4c2c31	> 100 µM (inactive)	> 100 µM (inactive)	> 100 µM (inactive)	> 100 µM (inactive)	> 100 µM (inactive)	> 100 µM (inactive)	> 100 µM (inactive)	> 100 µM (inactive)	> 100 µM (inactive)	> 100 µM (inactive)	> 100 µM (inactive)	> 100 µM (inactive)	> 100 µM (inactive)	46.3 µM (inactive)	–	> 100 µM (inactive)
CC/C=C1\N=C(c2ccc(Cl)cc2)OC1=O	> 100 µM (inactive)	> 100 µM (inactive)	> 100 µM (inactive)	> 100 µM (inactive)	> 100 µM (inactive)	> 100 µM (inactive)	> 100 µM (inactive)	> 100 µM (inactive)	> 100 µM (inactive)	> 100 µM (inactive)	> 100 µM (inactive)	> 100 µM (inactive)	> 100 µM (inactive)	> 100 µM (inactive)	> 100 µM (inactive)	> 100 µM (inactive)
COc1ccc(C2=NC(C)(C)CO2)cc1	> 100 µM (inactive)	> 100 µM (inactive)	> 100 µM (inactive)	> 100 µM (inactive)	> 100 µM (inactive)	> 100 µM (inactive)	> 100 µM (inactive)	> 100 µM (inactive)	> 100 µM (inactive)	> 100 µM (inactive)	–	> 100 µM (inactive)	–	–	> 100 µM (inactive)	–
CC1CC2CC(=O)CC3(C1)C2CCCN3CCCO (configuration not stated)	> 100 µM (inactive)	> 100 µM (inactive)	> 100 µM (inactive)	> 100 µM (inactive)	> 100 µM (inactive)	> 100 µM (inactive)	> 100 µM (inactive)	> 100 µM (inactive)	> 100 µM (inactive)	> 100 µM (inactive)	–	> 100 µM (inactive)	> 100 µM (inactive)	> 100 µM (inactive)	> 100 µM (inactive)	> 100 µM (inactive)
